Measured values taken from patent publication US20240101538A1, “PROTEIN-PROTEIN INTERACTION MODULATORS OF AURORA KINASE A AND THEIR USE IN THE PREVENTION AND/OR TREATMENT OF CANCER” (EBERHARD KARLS UNIVERSITÄT TÜBINGEN, priority 2020, published 2024).
Where two headings read alike, the source gives them in different places.

Tests used:
Format in all cases: cell-based, murine
NMP53^−/− cells [1] = experiment: Colony formation assay on NMP53^−/− cells; conditions: for minimal effective concentration: Mus musculus, 120 h, 5 days, read-out: EC (NMP53^−/−)
Text: (§1) To evaluate the effect of small molecules equipped with R-spine interacting moieties, the inventors screened a focused library of proprietary p38a MAP-Kinase inhibitors which were equipped with R-spine interacting pharmacophores. To this end, the inventors utilized a screening system as developed in Dauch et al.^2 The screening system is based on colony formation assays of cell lines isolated from Nras-driven, Trp53-deficient murine HCCs, whose development is dependent on MYC (NMP53^−/− cells), as well as Nras-driven, Cdkn2a^ARF-deficient murine HCCs, which develop independently of MYC (NMCdkn2a^ARF−/− cells). Importantly, NMP53^−/− cells are sensitive to AURKA inhibitors, which induce a conformational shift in AURKA, whereas NMCdkn2a^ARF−/− are not sensitive to such compounds.
(§2) For Colony Formation Assays, cells were seeded at a density of 50 000 cells per 6 well and next day treated with a 2-fold dilution series of the indicated compounds or the highest corresponding DMSO concentration as control. After 5 days, the cells were fixed with a 10% formaldehyde solution for 30 min, washed once with water, stained with a 0.5% crystal violet solution for 30 min and washed twice with water. The compounds effective concentration (EC) was determined according to the lowest concentration in the dilution series, that inhibited cell growth substantially. The resulting benzamide containing hit structure 1, with a twofold selectivity towards NMP53^−/− cells (effective concentration on NMP53^−/− cells (EC): 2 μM, EC on Cdkn2a^ARF−/−: 4 μM, FIG. 1), served as the inventors' starting point for further compound development.

NMCdkn2a^ARF−/− cells = experiment: Colony formation assay on NMCdkn2a^ARF−/− cells; conditions: Mus musculus, 120 h, 5 days, read-out: EC (NMCdkn2a^ARF−/−)
Text: as §1, §2

NMP53^−/− cells [2] = experiment: Cell viability assay (XTT-Assay); conditions: 3 days treatment, read-out: cellular IC50
Experimental: (A) Colony formation assay of a tumor cell line (NMP53^−/− cells), incubated for 5 days with compound 3a [N-(2-fluoro-5-((4-(1-methyl-1H-pyrazole-4-yl)benzyl)amino)phenyl)-3-(furan-2-yl)-propanamide] as indicated, fixed and stained with crystal violet. (B) Viability measurement (XTT assay) of a tumor cell line (NMP53^−/− cells) treated for 3 days with a series of concentrations of compound 3a according to this invention. […] (C) Determination of the percentage of cell death (by means of propidium iodide staining) of a tumor cell line (NMP53^−/− cells) treated with compound 3a for 5 days.
The cell viability assay (XTT-Assay) was used to determine cellular IC50 values. 1 000 cells were seeded per 96 well and treated with a 2-fold dilution series of the compounds on the next day. As a control, the cells were treated with DMSO according to the highest compound concentration (negative control) or 1.5 mM chloroquine (positive control). 3 days after treatment with the respective compound, or DMSO/chloroquine as a control, the XTT Assay was conducted according to the manufacturer's instructions (Invitrogen, X6493). The absorbance was measured with the Infinite M Plex plate reader (Tecan) at 450 nm. The IC50 was calculated by variable slope nonlinear regression utilizing GraphPad Prism 8.4.0 software (GraphPad Software, La Jolla, CA), with the DMSO treated cells resembling 100% cell viability and the chloroquine treated cells resembling o % cell viability.

[3] = target: interaction of AURKA with TPX2 (Homo sapiens (Human), UniProt O14965); experiment: Co-immunoprecipitation of FLAG-AURKA and western blot for TPX2; conditions: Co-IP with anti-FLAG, NMP53^−/− cells synchronized with nocodazole
Chain of interaction of AURKA with TPX2 (O14965 whole entry, looked up): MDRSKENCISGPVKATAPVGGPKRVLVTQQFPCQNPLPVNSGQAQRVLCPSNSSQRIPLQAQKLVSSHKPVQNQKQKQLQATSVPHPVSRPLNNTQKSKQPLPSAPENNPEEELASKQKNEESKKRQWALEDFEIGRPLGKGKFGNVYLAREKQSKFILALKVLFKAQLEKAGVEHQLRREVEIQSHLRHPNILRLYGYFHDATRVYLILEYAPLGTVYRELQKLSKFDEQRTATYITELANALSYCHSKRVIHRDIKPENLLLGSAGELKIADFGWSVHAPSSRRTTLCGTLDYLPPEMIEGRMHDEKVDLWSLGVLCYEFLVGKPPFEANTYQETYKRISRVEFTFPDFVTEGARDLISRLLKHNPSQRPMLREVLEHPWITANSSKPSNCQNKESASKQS
Chain of interaction of AURKA with TPX2 (A2APB8 whole entry partner, looked up): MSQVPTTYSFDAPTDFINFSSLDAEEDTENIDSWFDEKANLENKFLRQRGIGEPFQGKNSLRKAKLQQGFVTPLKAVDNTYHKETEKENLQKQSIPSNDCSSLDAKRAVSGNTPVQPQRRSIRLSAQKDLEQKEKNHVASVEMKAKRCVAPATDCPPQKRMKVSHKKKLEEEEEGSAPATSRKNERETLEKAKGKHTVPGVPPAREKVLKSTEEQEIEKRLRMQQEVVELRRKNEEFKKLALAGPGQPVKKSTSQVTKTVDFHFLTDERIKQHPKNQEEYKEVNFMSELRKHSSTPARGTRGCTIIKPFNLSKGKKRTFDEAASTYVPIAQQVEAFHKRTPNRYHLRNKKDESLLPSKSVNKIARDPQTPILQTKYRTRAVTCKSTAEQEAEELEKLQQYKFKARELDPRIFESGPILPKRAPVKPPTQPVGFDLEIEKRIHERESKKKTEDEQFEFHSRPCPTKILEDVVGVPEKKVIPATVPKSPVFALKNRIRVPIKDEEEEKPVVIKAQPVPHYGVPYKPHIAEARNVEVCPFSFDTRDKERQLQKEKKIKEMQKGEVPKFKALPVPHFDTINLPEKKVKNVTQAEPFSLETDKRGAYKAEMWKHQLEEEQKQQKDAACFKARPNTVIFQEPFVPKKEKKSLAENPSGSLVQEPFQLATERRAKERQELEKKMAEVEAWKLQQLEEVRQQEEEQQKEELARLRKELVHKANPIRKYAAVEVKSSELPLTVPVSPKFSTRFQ
Experimental: Tumor cells (NMP53^−/− cells) expressing a doxycycline-inducible FLAG-AURKA construct were kept on doxycycline for 24 hours, synchronized with 50 ng/ml nocodazole for 6 hours and treated with two of the developed compounds or DMSO as a control. In particular, the top “AURKA-Ligand” refers to compound 3a [N-(2-fluoro-5-((4-(1-methyl-1H-pyrazole-4-yl)benzyl)amino)phenyl)-3-(furan-2-yl),propanamide], and the bottom “AURKA-Ligand” refers to compound 2c [N-(5-((4-(1H-pyrazole-4-yl)benzyl)amino)-2-fluorophenyl)-3-(furan-2-yl)propanamide]. Co-immunoprecipitations (Co-IP) were carried out with an antibody against FLAG. A DMSO-treated sample without FLAG-AURKA induction served as a control. The AURKA and TPX2 levels of the Co-IP samples and their input were determined by western blotting.
Tumor cells (NMP53/cells) expressing a doxycycline-inducible FLAG-AURKA construct were kept on doxycycline for 24 hours, synchronized with 50 ng/ml nocodazole for 6 hours and treated with two of the developed compounds of this invention (3a and 2c), or DMSO as a control. Then, co-immunoprecipitations (Co-IP) were carried out with an antibody against FLAG. A DMSO-treated sample without FLAG-AURKA induction served as a control. The AURKA and TPX2 levels of the Co-IP samples and their input were determined by western blotting.

[4] = colony formation assay, lowest concentration of 2-fold dilution series that inhibited cell growth substantially
[5] = lowest concentration of 2-fold dilution series that inhibited cell growth substantially

For O=C(CCc1ccco1)Nc1cc(NCc2ccc(-c3cn[nH]c3)cc2)ccc1F [Compound 2c, N-(5-((4-(1H-pyrazole-4-yl)benzyl)amino)-2-fluorophenyl)-3-(furan-2-yl)propanamide], the “higher cellular activity compared to the initial hit 1” value (NMP53^−/− cells [1]; EC on NMP53^−/− cells) was “up to 16 fold”, the “increased efficacy compared to compound 2a” value (NMP53^−/− cells [1]; EC on NMP53^−/− cells) was 4 fold and the minimal effective concentration (NMP53^−/− cells [1]; [4]) was 0.125 µM. The minimal effective concentration (NMP53^−/− cells [1]; colony formation assay) was 0.125 µM, the “selectivity for NMP53^−/− cells” value (NMP53^−/− cells [1]; NMP53^−/− versus NMCdkn2a^ARF−/− cells, colony formation assay) was “up to 8 fold” and the minimal effective concentration (NMCdkn2a^ARF−/− cells; [5]) was 1 µM. For the same molecule, the minimal effective concentration (NMCdkn2a^ARF−/− cells) was over 1 µM, the IC50 (NMP53^−/− cells [2]; Mus musculus, 72 h) was 0.06 µM and the “interaction of AURKA with TPX2” value [3] was “largely enhance”.
Work on Cn1cc(-c2ccc(CNc3ccc(F)c(NC(=O)CCc4ccco4)c3)cc2)cn1 [Compound 3a, N-(2-fluoro-5-((4-(1-methyl-1H-pyrazole-4-yl)benzyl)amino)phenyl)-3-(furan-2-yl)propanamide] yielded a minimal effective concentration (NMP53^−/− cells [1]; [4]) of 0.031 µM, a minimal effective concentration (NMP53^−/− cells [1]; colony formation assay) of 0.031 µM and a minimal effective concentration (NMCdkn2a^ARF−/− cells; [5]) of 0.25 to 0.5 µM. It also gave a minimal effective concentration (NMCdkn2a^ARF−/− cells) of 0.25 to 0.5 µM, an IC50 (NMP53^−/− cells [2]) of 0.013 µM and an IC50 (NMP53^−/− cells [2]; Mus musculus, 72 h) of 0.014 µM. The “interaction of AURKA with TPX2” value [3] was “largely enhance”.
